Measured values as given in patent US20240343699A1, “DERIVATIVES OF SUBSTITUTED MORPHOLINES AND USES THEREOF” (Supernus Pharmaceuticals, Inc., priority 2023, published 2024).
Where two headings read alike, the source gives them in different places.

Experiments:
[1] = tested on: behavioral signature; test: SmartCube phenotypic screening (class/subclass and DRFA similarity analysis); format: in vivo, male C57/B16 mice; details: for proximity to donepezil / proximity to thioperamide: DRFA dose by dose, maximum (COMPOUND A: 90 and 120 mg/kg); for Subclass signature: COMPOUND A 30-120 mg/kg, COMPOUND B 90 and 120 mg/kg PO
Experimental: A study was conducted to evaluate the CNS-like efficacy of novel test compounds using the SmartCube® System.
Animals. Male C57/B16 mice from Taconic Laboratories (Germantown, NY) were used. Upon receipt, mice were group-housed in OPTIMice® ventilated cages with 4 mice per cage. Mice were acclimated to the colony room for at least one week prior to test, and subsequently tested at approximately 8-9 weeks of age. All animals were examined, handled, and weighed prior to initiation of the study to assure adequate health and suitability and to minimize nonspecific stress associated with manipulation. During the course of the study, 12/12 light/dark cycles were maintained. The room temperature was 20-23° C. with a relative humidity maintained between 30-70%. Chow and water were provided ad libitum for the duration of the study.
Test compounds. All compounds were administered orally at a dose volume of 10 mL/kg, 20 minutes prior to testing. Formulations were prepared fresh on day of testing and dosing was completed within one hour of formulation. Compounds were prepared according to the table below. Twelve mice were used in each treatment group:
SmartCube®. The SmartCube® system is designed to and can successfully measure numerous spontaneous behaviors and response to challenges in the same testing environment. The hardware includes force sensors and a number of aversive stimuli to elicit behavior. Three high-resolution video cameras provide constant 3D view of the mouse in the SmartCube® apparatus (SC) throughout the entire testing period. During the 45-minute test session the mice are exposed to a sequence of challenges. The cubes are cleaned between each run.
Digital videos of the subjects were processed through computer segmentation algorithms to fit geometrical models to each mouse frame image. The resulting fitted parameters were then analyzed using behavioral classifier algorithms to extract behavioral states, such as rearing, locomotion, and immobility. The data obtained in this way was used to define a drug signature for PGI's known reference compounds and establish a therapeutic class signature against which a test sample can be compared.
The data mining effort utilizes several analytical methods including Bayesian probabilistic density models and Decision trees. The algorithms consider ˜2,600 measures including frequency and duration of behavioral states such as grooming, rearing, etc., and many other features obtained during the test session.
Two major types of analyses are routinely conducted: Class and subclass.
Each reference drug was tested at multiple doses appropriate for that drug in mice.
Multiple analyses of the data were performed to quantitatively produce independent predictions of drug class, and drug subclass. The behavioral signatures of the test drugs were evaluated using these classifiers to predict potential therapeutic utility.
The results for the class and subclass analyses are presented as standardized bar charts with percentages that sum to 100 for each dose.
Similarity Analysis Using “Clouds Framework”. The outcome from SmartCube® is a large set of features (behavioral parameters) that can be used for various analyses. […] Therefore, we formed statistically independent combinations of the original features (further referred to as de-correlated features). Each de-correlated feature extracted information from the whole cluster of the original features, so the new feature space would have lower dimensionality. Next, we applied a proprietary feature ranking algorithm to score each feature for its discrimination power (ability to separate the two groups, e.g. vehicle from treatment). Ranking is an important part of our analyses because it weighs each feature change by its relevance. We applied a feature ranking algorithm, derived from support vector in the support vector machine learning method, to rank each feature.

[2] = Cellular and nuclear receptor functional assays; format: cell-based; details: human recombinant (CHO cells); for Kb: apparent dissociation constant, modified Cheng Prusoff equation, read-out: kB, 5-HT2B(h) (antagonist effect); for IC50: serotonin (30 nM), IP1, HTRF, read-out: IC50, 5-HT2B(h) (antagonist effect)
Experimental: A study was conducted to test 5 compounds in cellular and nuclear receptor functional and enzyme and uptake assays.
The results are expressed as a percent of control agonist response or inverse agonist response and as a percent inhibition of control agonist response
The EC50 values (concentration producing a half-maximal response) and IC50 values (concentration causing a half-maximal inhibition of the control agonist response) were determined by non-linear regression analysis of the concentration-response curves generated with mean replicate values using Hill equation curve fitting […]
where Y=response, A=left asymptote of the curve, D=right asymptote of the curve, C=compound concentration, and C50=EC50 or IC50, and nH=slope factor. This analysis was performed using software developed at Cerep (Hill software) and validated by comparison with data generated by the commercial software SigmaPlot® 4.0 for Windows® (© 1997 by SPSS Inc.).
For the antagonists, the apparent dissociation constants (KB) were calculated using the modified Cheng Prusoff equation where A=concentration of reference agonist in the assay, and EC50A=EC50 value of the reference agonist.
In Vitro Pharmacology. Results showing an inhibition (or stimulation for assays run in basal conditions) higher than 50% were considered to represent significant effects of the test compounds. Results showing an inhibition (or stimulation) between 25% and 50% are indicative of weak to moderate effects. Results showing an inhibition (or stimulation) lower than 25% were not considered significant and mostly attributable to variability of the signal around the control level.

[3] = target: T1, hNav1.5 (Homo sapiens, UniProt Q14524); test: Nav1.5 human sodium ion channel cell based automated patch clamp assay (QPatch HT); details: Antagonist
T1 construct: CYL6004QP2DR
T1 sequence (Q14524 whole entry): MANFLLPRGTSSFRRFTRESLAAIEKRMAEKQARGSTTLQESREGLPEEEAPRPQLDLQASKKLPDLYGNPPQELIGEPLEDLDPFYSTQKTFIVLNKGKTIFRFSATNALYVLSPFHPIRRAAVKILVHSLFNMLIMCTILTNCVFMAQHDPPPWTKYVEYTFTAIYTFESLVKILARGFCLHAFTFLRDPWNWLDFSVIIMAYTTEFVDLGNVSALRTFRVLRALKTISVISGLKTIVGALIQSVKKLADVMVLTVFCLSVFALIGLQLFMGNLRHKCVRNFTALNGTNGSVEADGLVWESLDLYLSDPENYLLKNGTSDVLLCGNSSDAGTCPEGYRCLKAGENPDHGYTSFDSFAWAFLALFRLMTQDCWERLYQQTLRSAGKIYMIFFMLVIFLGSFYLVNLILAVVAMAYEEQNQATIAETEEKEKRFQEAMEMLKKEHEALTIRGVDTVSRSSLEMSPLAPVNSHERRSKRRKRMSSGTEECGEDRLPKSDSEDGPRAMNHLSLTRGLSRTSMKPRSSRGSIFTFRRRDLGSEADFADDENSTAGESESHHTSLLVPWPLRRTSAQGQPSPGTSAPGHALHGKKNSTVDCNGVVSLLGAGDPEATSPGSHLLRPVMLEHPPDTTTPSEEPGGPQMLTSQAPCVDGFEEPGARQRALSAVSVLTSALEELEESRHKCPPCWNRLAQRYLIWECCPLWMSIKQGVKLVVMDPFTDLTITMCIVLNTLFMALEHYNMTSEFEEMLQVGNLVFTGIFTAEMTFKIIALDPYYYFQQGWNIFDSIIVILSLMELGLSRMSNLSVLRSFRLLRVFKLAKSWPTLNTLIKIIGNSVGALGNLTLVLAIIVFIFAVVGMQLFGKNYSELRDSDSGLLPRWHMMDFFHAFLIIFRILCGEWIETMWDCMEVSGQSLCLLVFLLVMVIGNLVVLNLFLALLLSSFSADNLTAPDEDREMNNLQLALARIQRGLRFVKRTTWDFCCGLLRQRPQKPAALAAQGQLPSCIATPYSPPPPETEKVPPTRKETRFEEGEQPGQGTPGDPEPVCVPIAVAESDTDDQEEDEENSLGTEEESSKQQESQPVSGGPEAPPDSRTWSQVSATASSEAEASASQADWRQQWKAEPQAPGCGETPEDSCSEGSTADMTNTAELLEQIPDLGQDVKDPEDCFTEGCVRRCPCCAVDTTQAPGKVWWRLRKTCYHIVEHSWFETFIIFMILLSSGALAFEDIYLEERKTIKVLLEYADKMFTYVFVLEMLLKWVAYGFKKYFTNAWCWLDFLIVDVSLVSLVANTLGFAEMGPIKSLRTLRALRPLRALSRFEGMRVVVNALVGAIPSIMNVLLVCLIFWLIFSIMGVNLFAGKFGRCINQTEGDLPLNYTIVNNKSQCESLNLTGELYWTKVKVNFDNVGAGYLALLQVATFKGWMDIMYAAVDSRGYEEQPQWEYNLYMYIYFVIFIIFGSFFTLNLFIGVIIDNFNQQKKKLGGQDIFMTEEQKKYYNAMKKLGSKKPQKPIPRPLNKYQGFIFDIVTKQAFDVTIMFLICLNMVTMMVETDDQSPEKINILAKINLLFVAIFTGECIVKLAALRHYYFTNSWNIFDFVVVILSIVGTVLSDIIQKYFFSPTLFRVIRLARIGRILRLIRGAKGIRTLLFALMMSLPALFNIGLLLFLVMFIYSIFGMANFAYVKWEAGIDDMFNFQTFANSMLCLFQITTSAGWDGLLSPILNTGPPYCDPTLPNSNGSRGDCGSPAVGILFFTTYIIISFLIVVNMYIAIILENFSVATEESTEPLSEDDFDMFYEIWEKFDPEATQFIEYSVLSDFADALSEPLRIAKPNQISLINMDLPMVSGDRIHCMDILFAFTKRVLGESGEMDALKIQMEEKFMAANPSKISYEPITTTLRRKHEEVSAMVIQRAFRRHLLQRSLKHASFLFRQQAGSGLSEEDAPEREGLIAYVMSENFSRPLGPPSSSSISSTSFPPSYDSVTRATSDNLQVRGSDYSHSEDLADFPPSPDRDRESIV
Experimental: Electrophysiological assays were conducted to profile five compounds for activities on the ion channel target using the QPatch HT electrophysiological platform.
CYL6004QP2DR Nav1.5 Human Sodium Ion Channel Cell Based Automated Patch Clamp Assay. Cells were held at −120 mV for 100 ms, stepped to −130 mV for 100 ms, and stepped back to −120 mV for 100 ms to measure the leak current. Na channels exist in a) resting or closed state at −120 mV, b) a transient open state that inactivates to c) inactivated state at −10 mV. Na current inhibition within 1-2 ms of channel opening at −10 mV is open channel inhibition (pulse 1). […] Pulse 1 and 2 are used to investigate drug binding to the open state and inactivated state of the Na channels, respectively. Each concentration of compound was applied for 5 minutes.
Current amplitudes more than 200 pA at the control stage were analyzed. The amplitude of the current was calculated by measuring the difference between the peak inward current on stepping to −10 mV (i.e. peak of the current) and remaining current at the end of the step. The current was assessed in vehicle control conditions and then at the end of each five (5) minute compound application.

[4] = Pulse 1 (open state), read-out: Estimated IC50 (Pulse 1)
[5] = Pulse 2 (inactivated state), read-out: Estimated IC50 (Pulse 2)

Compound | behavioral activity (class/subclass analysis) ([1]; 60-150 mg/kg PO) | proximity to donepezil [1] | proximity to thioperamide [1] | proximity to amphetamine ([1]; DRFA, active doses) [%] | proximity to atomoxetine ([1]; DRFA, active doses) [%] | class signature ([1]; highest dose tested (150 mg/kg PO)) | Kb [2] [µM] | IC50 [2] [µM] | IC50 [3, 4] [µM] | IC50 [3, 5] [µM] | behavioral activity (class/subclass analysis) ([1]; 40 and 80 mg/kg PO) | behavioral activity (class/subclass analysis) ([1]; 90 and 120 mg/kg PO) | Subclass signature [1] | behavioral activity (class/subclass analysis) ([1]; 30-120 mg/kg PO)
CCOc1ccccc1OC[C@@H]1CN(C(=O)OC(OC(=O)[C@H](N)C(C)C)C(C)C)CCO1 (stereo partly shown) [COMPOUND C] | high behavioral activity | around 100% | around 100% | > 75 | > 75 | predominant antipsychotic-like signature | 2 | 13 | > 100 | 8.5 |  |  |  | 
CCOc1ccccc1OCC1CN(C(=O)OC(C)OC(=O)[C@H](N)C(C)C)CCO1 (stereo partly shown) [COMPOUND D] |  |  |  |  |  |  | 0.75 | 4.9 | > 100 | 14.1 | dose dependent increase in activity |  |  | 
CCOc1ccccc1OCC1CN(C(=O)OC(OC(=O)[C@@H](N)C(C)C)C(C)C)CCO1 (stereo partly shown) [COMPOUND E] |  |  |  |  |  |  | 0.63 | 4.2 | 92.6 | 5.7 | moderate activity |  |  | 
CCOc1ccccc1OC[C@@H]1CN(C(=O)OC(OC(=O)[C@@H](N)C(C)C)C(C)C)CCO1 (stereo partly shown) [COMPOUND B] |  |  |  |  |  |  | 2.1 | 14 | > 100 | 7.6 |  | high behavioral activity | predominantly cognitive enhancer-like | 
CCOc1ccccc1OC[C@@H]1CN(C(=O)OC(C)OC(=O)[C@@H](N)C(C)C)CCO1 (stereo partly shown) [COMPOUND A] |  | > 65% | > 75% |  |  |  | 1 | 6.9 | > 100 | 19.6 |  |  | predominantly cognitive enhancer-like | high behavioral activity
